The subject of data set [1] is human mixed leukocyte-tumor cultures. As to the kind of experiment: Total viable cells recovered from human mixed leukocyte-tumor cultures. It counts as cell-based. The settings on record: Table IV. As for the experimental part:
Human cytotoxic T-lymphocytes were generated in mixed leukocyte-tumor cultures by known methods. Specifically, blood from normal volunteer donors was drawn into heparinized syringes, diluted 1:1 with calcium-magnesium free Hanks' balanced salt solution (Ca-Mg free HBSS), and layered over lymphocyte separation medium (Litton Bionetics, Kensington, MD). After centrifugation at 500xg for 20-30 min at room temperature, peripheral blood mononuclear cells were harvested from the interface. The peripheral blood mononuclear leukocytes were centrifuged and resuspended in Ca-Mg free HBSS and were subsequently separated from platelets by centrifugation at 500xg through a solution of 20% sucrose and 1% human AB serum in Ca-Mg free HBSS. The cells were washed once and finally resuspended in tissue culture medium. […] Cells to be used as stimulator cells in mixed leukocyte-tumor cultures were irradiated with 10,000 rads of gamma irradiation to preclude proliferation in culture. Mixed leukocyte-tumor cell cultures were established in 16 mm tissue culture wells at a final volume of 1.5 ml per well containing 2×10^6 peripheral blood mononuclear leukocytes and 5×10^4 irradiation-inactivated stimulator cells. […]

For data set [2], the system named is IgG production by human lymphocytes. Nature of the data set: Inhibition of IgG production by human lymphocytes in vitro (SAC activation, ELISA). It counts as cell-based. The settings on record: 8 days, vehicle control 0.78 ± 0.09. The procedure, abridged: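 Human PBL (2.5×10^6 cells/ml in 20% FBS RPMI) activated with SAC (1:20,000) for 8 days with vitamin D derivatives at 10^-5–10^-10 M final, 0.1% ethanol vehicle, triplicates. Secreted IgM or IgG quantified by ELISA and compared with vehicle cultures.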
For orientation: In an ELISA, binding on a coated surface is turned into a signal by an enzyme label.

Each structure is given as a SMILES string.

`C=C1/C(=C\C=C2/CCC[C@]3(C)[C@@H]([C@H](C)C[C@H](O)CC(C)(C)O)CC[C@@H]23)C[C@@H](O)C[C@@H]1O` [1α,23S,25-(OH)3 --D3, 1α,23S,25-Trihydroxycholecalciferol]: the “toxicity at concentrations suppressing human CTL generation (in words)” value in data set [1] is recorded as “non-toxic”. In addition, the “IgG μg per culture (x ± S.E.M.)” value in data set [2] (1 × 10^-6 molar) is listed as 0.01 ± 0.002 μg per culture; in data set [2] (1 × 10^-7 molar) it was 0.02 ± 0.002 μg per culture; in data set [2] (1 × 10^-8 molar), 0.05 ± 0.01 μg per culture; in data set [2] (1 × 10^-9 molar), 1.14 ± 0.61 μg per culture; in data set [2] (1 × 10^-10 molar), 0.54 ± 0.18 μg per culture.
In the case of `C=C1/C(=C\C=C2/CCC[C@]3(C)[C@@H]([C@H](C)/C=C/[C@H](C)[C@](C)(O)CO)CC[C@@H]23)C[C@@H](O)C[C@@H]1O` [1α,25S,26-(OH)3 --D2, 1α,25S,26-Trihydroxyergocalciferol], the “IgG μg per culture (x ± S.E.M.)” value is on record as “undetectable” in data set [2] (1 × 10^-6 molar); 0.01 ± 0.005 μg per culture in data set [2] (1 × 10^-7 molar); 0.07 ± 0.02 μg per culture in data set [2] (1 × 10^-8 molar); 0.08 ± 0.03 μg per culture in data set [2] (1 × 10^-9 molar); 0.21 ± 0.06 μg per culture in data set [2] (1 × 10^-10 molar).
On to `C=C1/C(=C\C=C2/CCC[C@]3(C)[C@@H]([C@H](C)C=CC[C@](C)(O)CO)CC[C@@H]23)C[C@@H](O)C[C@@H]1O` [1α,25S,26-(OH)3 --Δ^22 -D3, 1α,25S,26-Trihydroxy-Δ^22-cholecalciferol], for which the “IgG μg per culture (x ± S.E.M.)” value stood at 0.005 ± 0.002 μg per culture in data set [2] (1 × 10^-6 molar); 0.01 ± 0.002 μg per culture in data set [2] (1 × 10^-7 molar); 0.04 ± 0.01 μg per culture in data set [2] (1 × 10^-8 molar); 0.06 ± 0.03 μg per culture in data set [2] (1 × 10^-9 molar); 0.20 ± 0.03 μg per culture in data set [2] (1 × 10^-10 molar).
